Laboratory results published in PubChem BioAssay (NCI).
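1) Cells in 96-well plates. 2) Compound, 48 h, 5 concentrations. 3) Linear interpolation between surrounding doses. 4) Unreached endpoint = highest concentration. GI50 = concentration required for 50% inhibition of growth. TGI denotes the concentration required for complete inhibition of growth.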

Legend:
Experiment in all cases: NCI anticancer screen, dose series, 48 h
[1] = test system: NCI/ADR-RES ovarian
[2] = test system: HL-60(TB) leukemia
[3] = test system: HOP-62 NSCLC
[4] = test system: RXF 393 renal
[5] = test system: TK-10 renal
[6] = test system: SNB-19 CNS
[7] = test system: HT29 colon
[8] = test system: COLO 205 colon
[9] = test system: CAKI-1 renal
[10] = test system: U251 CNS

## O=C(O)C1C2C=CC(O2)C1C(=O)NCc1cccnc1 (stereo not drawn)
[1]
  TGI: > 100 µM
[2]
  TGI: > 100 µM
[3]
  TGI: > 100 µM
[4]
  TGI: > 100 µM
[5]
  TGI: > 100 µM
[6]
  TGI: > 100 µM
[7]
  TGI: > 100 µM
[8]
  TGI: > 100 µM
[9]
  TGI: > 100 µM
[10]
  TGI: > 100 µM

## CN(C)c1ccc(C(=S)c2ccc(N(C)C)cc2)cc1
[1]
  GI50: 2.4 µM
  TGI: 7.66 µM
[2]
  GI50: 4.17 µM
  TGI: > 100 µM
[3]
  GI50: 5.09 µM
  TGI: > 100 µM
[4]
  GI50: 4.81 µM
  TGI: 42.9 µM
[5]
  GI50: 13.8 µM
  TGI: > 100 µM
[6]
  GI50: 6.16 µM
  TGI: > 100 µM
[7]
  GI50: 3.79 µM
  TGI: > 100 µM
[8]
  GI50: 6.83 µM
  TGI: 59 µM
[9]
  GI50: 6.15 µM
  TGI: > 100 µM
[10]
  GI50: 6.34 µM
  TGI: > 100 µM

## CC1(C)OB(c2ccc(N(CCOS(C)(=O)=O)CCOS(C)(=O)=O)cc2)OC1(C)C
[1]
  GI50: 15.8 µM
  TGI: 65.2 µM
[2]
  GI50: 2.85 µM
  TGI: 39.3 µM
[3]
  GI50: 7.92 µM
  TGI: 23.4 µM
[4]
  GI50: 24.6 µM
  TGI: > 67.4 µM
[5]
  GI50: 18.9 µM
  TGI: 56.4 µM
[6]
  GI50: 31.3 µM
  TGI: > 100 µM
[7]
  GI50: 30 µM
  TGI: > 100 µM
[8]
  GI50: 24.1 µM
  TGI: > 100 µM
[9]
  GI50: 1.79 µM
  TGI: 18.4 µM
[10]
  GI50: 8.66 µM
  TGI: 34.7 µM

## O=C1/C(=C/c2cccnc2)SC(=S)N1Cc1ccco1
[1]
  TGI: > 100 µM
[2]
  TGI: > 22 µM
[3]
  TGI: 27.1 µM
[4]
  TGI: 24.2 µM
[5]
  TGI: 10.8 µM
[6]
  TGI: > 100 µM
[7]
  TGI: > 100 µM
[8]
  TGI: > 42.2 µM
[9]
  TGI: 80.6 µM
[10]
  TGI: 30.6 µM

## N#CCc1c(F)c(F)c(F)c(F)c1F
[1]
  TGI: > 100 µM
[2]
  TGI: > 100 µM
[3]
  TGI: > 100 µM
[4]
  TGI: > 100 µM
[5]
  TGI: > 100 µM
[6]
  TGI: > 100 µM
[7]
  TGI: > 100 µM
[8]
  TGI: > 100 µM
[9]
  TGI: > 100 µM
[10]
  TGI: > 100 µM

## COc1ccc2[nH]c(Cl)c(/C=C3/C(=O)Nc4ccccc43)c2c1
[1]
  GI50: 0.715 µM
  TGI: 3.38 µM
[2]
  GI50: 0.449 µM
  TGI: 2.84 µM
[3]
  GI50: 0.523 µM
  TGI: 1.27 µM
[4]
  GI50: 0.381 µM
  TGI: 6.92 µM
[5]
  GI50: 1.06 µM
  TGI: 8.74 µM
[6]
  GI50: 0.852 µM
[7]
  GI50: 0.316 µM
[8]
  GI50: 0.427 µM
  TGI: 3.25 µM
[9]
  GI50: 0.673 µM
  TGI: 1.75 µM
[10]
  GI50: 0.861 µM
  TGI: 2.75 µM

## Oc1ccc2ccccc2c1CCc1c(O)ccc2ccccc12
[1]
  TGI: 31.1 µM
[2]
  TGI: 40.9 µM
[3]
  TGI: 28.2 µM
[4]
  TGI: 27.5 µM
[5]
  TGI: 32.5 µM
[6]
  TGI: 32.4 µM
[7]
  TGI: 18.6 µM
[8]
  TGI: 29.1 µM
[9]
  TGI: 20.5 µM
[10]
  TGI: 26 µM

## C=CC(=O)N[C@@H]1CN(c2nc(Nc3cn(C)nc3OC)c3ncn(C)c3n2)C[C@H]1F
[1]
  GI50: > 100 µM
  TGI: > 100 µM
[2]
  GI50: 27.8 µM
  TGI: 78.5 µM
[3]
  GI50: 26.2 µM
  TGI: > 100 µM
[4]
  GI50: 34.1 µM
  TGI: > 84.5 µM
[5]
  GI50: 0.0664 µM
  TGI: 23.9 µM
[6]
  GI50: 27.1 µM
  TGI: > 100 µM
[7]
  GI50: 20.9 µM
  TGI: > 83.1 µM
[8]
  GI50: 17.6 µM
  TGI: 48.6 µM
[9]
  GI50: 1.22 µM
  TGI: > 100 µM
[10]
  GI50: 39.1 µM
  TGI: > 100 µM

## Oc1ccc(NC(=S)Nc2ccccc2)cc1
[1]
  GI50: > 100 µM
  TGI: > 100 µM
[2]
  GI50: > 100 µM
  TGI: > 100 µM
[3]
  GI50: > 100 µM
  TGI: > 100 µM
[4]
  GI50: > 100 µM
  TGI: > 100 µM
[5]
  GI50: > 100 µM
  TGI: > 100 µM
[6]
  GI50: > 100 µM
  TGI: > 100 µM
[7]
  GI50: > 100 µM
  TGI: > 100 µM
[8]
  GI50: > 100 µM
  TGI: > 100 µM
[9]
  GI50: > 100 µM
  TGI: > 100 µM
[10]
  GI50: > 100 µM
  TGI: > 100 µM

## O=c1cc(-c2ccc(Cl)cc2)[nH]c2ccccc12
[1]
  GI50: 27.1 µM
  TGI: > 100 µM
[2]
  GI50: 5.62 µM
  TGI: > 100 µM
[3]
  GI50: 61.4 µM
  TGI: > 100 µM
[4]
  GI50: 45.9 µM
  TGI: > 100 µM
[5]
  GI50: > 100 µM
  TGI: > 100 µM
[6]
  GI50: 95.3 µM
  TGI: > 100 µM
[7]
  GI50: 40.7 µM
  TGI: > 100 µM
[8]
  GI50: 35.1 µM
  TGI: > 100 µM
[9]
  GI50: 47.3 µM
  TGI: > 100 µM
[10]
  GI50: 41.5 µM
  TGI: > 100 µM

## C[C@@H](Nc1nc(N[C@H](C)C(F)(F)F)nc(-c2cccc(Cl)n2)n1)C(F)(F)F
[1]
  GI50: 32.9 µM
  TGI: > 100 µM
[2]
  GI50: > 100 µM
  TGI: > 100 µM
[3]
  GI50: 27.5 µM
  TGI: > 100 µM
[4]
  GI50: 23.2 µM
  TGI: 94.7 µM
[5]
  GI50: 39.9 µM
  TGI: > 100 µM
[6]
  GI50: 23.3 µM
  TGI: 63.5 µM
[7]
  GI50: > 100 µM
  TGI: > 100 µM
[8]
  GI50: > 100 µM
  TGI: > 100 µM
[9]
  GI50: 24.9 µM
  TGI: 96.2 µM
[10]
  GI50: 20.8 µM
  TGI: 54 µM
